From the NIST ThermoML archive (doi:10.1021/je1012229)

Details: 101.33 kPa, Liquid, Vibrating tube method

CCCCn1cc[n+](C)c1.F[P-](F)(F)(F)(F)F [1-butyl-3-methylimidazolium hexafluorophosphate]
Details | mass density [kg/m3]
283.15 K | 1380.2
293.15 K | 1372
303.15 K | 1362.6
313.15 K | 1354.1
323.15 K | 1345.7
333.15 K | 1339.1
343.15 K | 1331.7
353.15 K | 1323.4
363.15 K | 1314.2
